The values that follow come from patent US8906644B2, “Method for culture of hepatocytes” (The University of Tokyo, priority 2009, dated 2014).

For the data set, the target named is T1, drug transporter (MRP2) (Rattus norvegicus, UniProt Q63120).
T1 construct: endogenous in cells; host or cells: primary hepatocytes in collagen gel sandwich culture on a PDMS membrane device, with a polystyrene device for comparison
Nature of the data set: Measurement of MRP2 activity with CDCF (Bile Excretion Index) in collagen gel sandwiched hepatocytes. In kind it is in vitro ADME. The note with it: Day 4 of culture, 5 μM CDCF, 5 minutes. The procedure:
Using the collagen gel sandwiched hepatocytes that were cultured on the PDMS membrane culturing device prepared in Example 1 and forming bile canaliculi, the activity of a drug transporter (MRP2) was measured by incorporation of 5-(and-6)-carboxy-2′,7′-dichlorofluorescein (CDCF) as follows according to a Non-patent Document (Liu X et al., Am J Physiol, 1999, vol. 277, pp. 12-21). Further, hepatocytes cultured in a conventional polystyrene culturing device were used for comparison.
Ca/Mg(+) HBSS was prepared before use by mixing 50 mL of HBSS (Invitrogen, 14175-079), 500 μL of 14 g/L CaCl2 and 500 μL of 10 g/L MgCl2/6H2O together. In terms of the CDCF solution, a 5 μM CDCF solution was prepared before use by using 1 mM CDCF (in dimethyl sulfoxide: Molecular Probes, C-369) and Ca/Mg(+) HBSS, and the prepared solution was incubated in a water bath at 37° C. […]
Two hepatocyte cultures were prepared 4 days after the beginning of the culture (3 days after the deposition of the gel). […] A 100-μL aliquot was collected from each supernatant and subjected to measurement with a fluorescence microplate reader with excitation at 492 nm and fluorescence at 530 nm to quantify the amount of CDCF. […] The Bile Excretion Index (BEI) was calculated according to the following equation based on the fluorescent brightness per protein amount (Accumulation).

T1 sequence (Q63120 whole entry): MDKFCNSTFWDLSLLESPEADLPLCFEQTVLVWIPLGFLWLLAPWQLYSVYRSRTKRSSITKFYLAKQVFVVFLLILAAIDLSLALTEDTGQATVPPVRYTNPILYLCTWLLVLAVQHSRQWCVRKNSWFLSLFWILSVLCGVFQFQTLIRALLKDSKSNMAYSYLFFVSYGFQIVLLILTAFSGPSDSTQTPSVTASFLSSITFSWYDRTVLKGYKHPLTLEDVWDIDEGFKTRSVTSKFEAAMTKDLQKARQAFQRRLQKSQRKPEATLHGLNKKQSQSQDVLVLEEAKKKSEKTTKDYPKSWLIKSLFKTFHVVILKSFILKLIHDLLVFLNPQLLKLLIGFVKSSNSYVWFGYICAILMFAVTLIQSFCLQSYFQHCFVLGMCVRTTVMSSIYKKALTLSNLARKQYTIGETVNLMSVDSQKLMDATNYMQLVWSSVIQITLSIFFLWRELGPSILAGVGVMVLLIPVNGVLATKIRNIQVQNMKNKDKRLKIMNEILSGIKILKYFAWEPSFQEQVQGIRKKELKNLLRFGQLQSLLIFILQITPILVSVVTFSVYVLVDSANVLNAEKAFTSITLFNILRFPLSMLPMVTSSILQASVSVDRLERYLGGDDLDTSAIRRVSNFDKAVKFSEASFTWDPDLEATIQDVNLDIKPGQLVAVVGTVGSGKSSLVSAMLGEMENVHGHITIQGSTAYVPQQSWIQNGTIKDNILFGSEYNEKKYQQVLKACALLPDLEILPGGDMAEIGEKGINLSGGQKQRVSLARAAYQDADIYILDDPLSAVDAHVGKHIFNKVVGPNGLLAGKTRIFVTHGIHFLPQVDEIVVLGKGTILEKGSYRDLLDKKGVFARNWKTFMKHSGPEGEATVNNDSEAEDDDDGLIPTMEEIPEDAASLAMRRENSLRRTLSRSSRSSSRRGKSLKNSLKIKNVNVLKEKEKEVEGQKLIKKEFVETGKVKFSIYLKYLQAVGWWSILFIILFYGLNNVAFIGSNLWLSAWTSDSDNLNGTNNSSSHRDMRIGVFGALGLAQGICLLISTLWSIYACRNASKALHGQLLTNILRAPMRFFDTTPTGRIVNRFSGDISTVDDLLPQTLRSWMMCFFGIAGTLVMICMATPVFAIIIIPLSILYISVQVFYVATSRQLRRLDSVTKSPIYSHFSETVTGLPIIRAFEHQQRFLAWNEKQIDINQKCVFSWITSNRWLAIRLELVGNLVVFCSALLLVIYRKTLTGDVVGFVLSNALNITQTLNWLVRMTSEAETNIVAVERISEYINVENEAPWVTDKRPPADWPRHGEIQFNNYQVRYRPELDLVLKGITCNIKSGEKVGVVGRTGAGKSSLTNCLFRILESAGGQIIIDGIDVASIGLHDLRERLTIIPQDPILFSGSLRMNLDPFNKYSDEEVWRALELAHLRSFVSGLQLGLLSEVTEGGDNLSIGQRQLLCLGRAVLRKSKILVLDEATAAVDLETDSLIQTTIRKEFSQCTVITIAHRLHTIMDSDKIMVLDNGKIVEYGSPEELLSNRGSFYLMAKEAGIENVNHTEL

Take “5-(and-6)-carboxy-2′,7′-dichlorofluorescein [CDCF]”: the “Bile Excretion Index (BEI)” value runs as follows: (collagen gel sandwich on conventional polystyrene (PS) substrate) “about 20%”; (collagen gel sandwich on gas-permeable PDMS membrane culturing device) “about 40%”.
